Here are results for 15 molecules from patent publication US6903086B2, “Alkoxycarbonylamino benzoic acid or alkoxycarbonylamino tetrazolyl phenyl derivatives as IP antagonists” (SYNTEX (U.S.A.) LLC, priority 2001, dated 2005).

Broadly, the melting point is the temperature, or range, at which the solid turns liquid.

`CC(C)Oc1ccc(NC(=O)OCc2cc3cc(-c4ccc(F)cc4)ccc3o2)c(C(=O)O)c1` [compound 301, 2-[5-(4-fluoro-phenyl)-benzofuran-2-ylmethoxycarbonylamino]-5-isopropoxy-benzoic acid]: the melting point lay within 195 to 196.5 °C.

In turn, `O=C(Nc1cc(C(=O)O)cc(-c2ccccc2)c1)OCc1cc2cc(-c3ccccc3)ccc2o1` [compound 401, 5-(5-phenyl-benzofuran-2-ylmethoxycarbonylamino)-biphenyl-3-carboxylic acid] registered a melting point of 235.7 to 238.9 °C.

Take `O=C(Nc1ccc(-c2ccccc2)cc1-c1nnn[nH]1)OCc1cc2cc(-c3ccccc3)ccc2o1` [compound 501]: the melting point fell in the range of 180 to 183 °C.

On to `O=C(Nc1ccc(-c2ccccc2)cc1-c1nnn[nH]1)OCc1cc2cc(-c3cc(Cl)cc(Cl)c3)ccc2o1` [compound 502, [3-(1H-tetrazol-5-yl)-biphenyl-4-yl]-carbamic acid 5-(3,5-dichloro-phenyl)-benzofuran-2-ylmethyl ester], for which the melting point lay within 127.5 to 134 °C.

As for `O=C(Nc1ccccc1-c1nnn[nH]1)OCc1cc2cc(-c3ccc(F)cc3)ccc2o1` [compound 503, [2-(1H-tetrazol-5-yl)-phenyl]-carbamic acid 5-(4-fluoro-phenyl)-benzofuran-2-ylmethyl ester], the melting point fell in the range of 155 to 158 °C.

In turn, `O=C(Nc1ccc(Br)cc1-c1nnn[nH]1)OCc1cc2cc(-c3ccc(F)cc3)ccc2o1` [compound 504, [4-bromo-2-(1H-tetrazol-5-yl)-phenyl]-carbamic acid 5-(4-fluoro-phenyl)-benzofuran-2-ylmethyl ester] registered a melting point of 121 to 138 °C.

Turning to `O=C(Nc1ccc(-c2ccc(F)cc2)cc1-c1nnn[nH]1)OCc1cc2cc(-c3ccc(F)cc3)ccc2o1` [compound 505, [4′-fluoro-3-(1H-tetrazol-5-yl)-biphenyl-4-yl]-carbamic acid 5-(4-fluoro-phenyl)-benzofuran-2-ylmethyl ester], the melting point fell in the range of 209 to 211 °C.

Regarding `O=C(Nc1ccc(F)cc1-c1nnn[nH]1)OCc1cc2cc(-c3ccc(F)cc3)ccc2o1` [compound 506, [4-fluoro-2-(1H-tetrazol-5-yl)-phenyl]-carbamic acid 5-(4-fluoro-phenyl)-benzofuran-2-ylmethyl ester], the melting point is 121 to 125.2 °C.

`O=C(Nc1ccc(Br)cc1-c1nnn[nH]1)OCc1cc2cc(-c3ccccc3)ccc2o1` [compound 507, [4-bromo-2-(1H-tetrazol-5-yl)-phenyl]-carbamic acid 5-phenyl-benzofuran-2-ylmethyl ester] displayed a melting point of 166 to 190 °C.

As for `O=C(Nc1ccccc1-c1nnn[nH]1)OCc1cc2cc(-c3ccccc3)ccc2o1` [compound 508, [2-(1H-tetrazol-5-yl)-phenyl]-carbamic acid 5-phenyl-benzofuran-2-ylmethyl ester], the melting point is 213 to 216.5 °C.

In the case of `O=C(Nc1ccc(-c2ccccc2)cc1-c1nnn[nH]1)OCc1cc2cc(-c3ccc(F)cc3)ccc2o1` [compound 509, [3-(1H-tetrazol-5-yl)-biphenyl-4-yl]-carbamic acid 5-(4-fluoro-phenyl)-benzofuran-2-ylmethyl ester], the melting point was 192 to 230 °C.

Consider `O=C(Nc1ccc(-c2ccccc2)cc1C(=O)O)OCc1ccc(-c2ccccc2)cc1` [compound 601, 4-(biphenyl-4-ylmethoxycarbonylamino)-biphenyl-3-carboxylic acid], for which the melting point was 234.5 to 235.6 °C.

In the case of `Nc1cccc(NC(=O)OCc2cc3cc(-c4ccc(F)cc4)ccc3o2)c1C(=O)O` [compound 701, 2-amino-6-[5-(4-fluorophenyl)benzofuran-2-ylmethoxycarbonylamino]benzoic acid], the melting point fell in the range of 176.4 to 178.5 °C.

For the molecule `O=C(Nc1cccc(Cl)c1C(=O)O)OCCOc1ccc(-c2ccccc2)cc1` [compound 801, 2-[2-(biphenyl-4-yloxy)-ethoxycarbonylamino]-6-chloro-benzoic acid], the melting point was 157.5 to 158.9 °C.

Consider `Cc1ccc(NC(=O)OCCOc2ccc(-c3ccccc3)cc2)c(C(=O)O)c1` [compound 802, 2-[2-(biphenyl-4-yloxy)-ethoxycarbonylamino]-5-methyl-benzoic acid], for which the melting point lay within 175.5 to 177.8 °C.
